Tests used:
Assay in all cases: Kinase Profiler 10 μM panel
AAK1(h) = AAK1(h) (Homo sapiens (Human), UniProt Q2M2I8)
Description: (§1) In vitro kinase assays were conducted using Kinase Profiler services provided by Eurofins. The experimental method was as follows: the small molecule compound to be tested (0.001-10 μM), the protein kinase to be tested were incubated with a buffer containing substrate, 10 mM magnesium acetate, and [γ-^33P-ATP], the reaction was started by adding Mg\TPmix, after incubation for a period of time at room temperature, a 3% phosphate solution was added to the buffer to stop the reaction. Subsequently, 10 μL of the reaction mixture was quantitatively pipetted onto P30 filter paper, which was washed three times with 75 mM phosphate solution and then once with methanol. The P30 filter paper was air-dried and scintillation fluid was added for scintillation counting.

GCK(h) = GCK(h) (Homo sapiens (Human), UniProt Q12851)
Description: as §1

NEK6(h) = NEK6(h) (Homo sapiens (Human), UniProt Q9HC98)
Description: as §1

IKKa(h) = IKKa(h) (Homo sapiens (Human), UniProt O15111)
Description: as §1

EGFR(T790M,L858R)(h) = EGFR(T790M,L858R)(h) (Homo sapiens (Human), UniProt P00533, L858R/T790M)
Description: as §1

MARK1(h) = MARK1(h) (Homo sapiens (Human), UniProt Q9P0L2)
Description: as §1

EphA2(h) = EphA2(h) (Homo sapiens (Human), UniProt P29317)
Description: as §1

Plk4(h) = Plk4(h) (Homo sapiens (Human), UniProt O00444)
Description: as §1

MKK3(h) = MKK3(h) (Homo sapiens (Human), UniProt P46734)
Description: as §1

EphA7(h) = EphA7(h) (Homo sapiens (Human), UniProt Q15375)
Description: as §1

NEK1(h) = NEK1(h) (Homo sapiens (Human), UniProt Q96PY6)
Description: as §1

CK1ϵ(h) = CK1ϵ(h) (Homo sapiens (Human), UniProt P49674)
Description: as §1

PIP4K2a(h) = PIP4K2a(h) (Homo sapiens (Human), UniProt P48426)
Description: as §1

PKBα(h) = PKBα(h) (Homo sapiens (Human), UniProt P31749)
Description: as §1

Abl(Y253F)(h) = Abl(Y253F)(h) (Homo sapiens (Human), UniProt P00519, Y253F)
Description: as §1

TTK(h) = TTK(h) (Homo sapiens (Human), UniProt P33981)
Description: as §1

Axl(h) = Axl(h) (Homo sapiens (Human), UniProt P30530)
Description: as §1

TSSK1(h) = TSSK1(h) (Homo sapiens (Human), UniProt Q9BXA7)
Description: as §1

CHK2(R145W)(h) = CHK2(R145W)(h) (Homo sapiens (Human), UniProt O96017, R145W)
Description: as §1

Flt4(h) = Flt4(h) (Homo sapiens (Human), UniProt P35916)
Description: as §1

PASK(h) = PASK(h) (Homo sapiens (Human), UniProt Q96RG2)
Description: as §1

PhKγ1(h) = PhKγ1(h) (Homo sapiens (Human), UniProt Q16816)
Description: as §1

CDK2/cyclinE(h) = CDK2/cyclinE(h) (Homo sapiens (Human), UniProt P24941)
Description: as §1

PKCβII(h) = PKCβII(h) (Homo sapiens (Human), UniProt P05771)
Description: as §1

PKD2(h) = PKD2(h) (Homo sapiens (Human), UniProt Q9BZL6)
Description: as §1

[1] = target: PI3 Kinase (p110a/p65a)(m) (Mus musculus (Mouse), UniProt P42337)
Description: as §1

Src(T341M)(h) = Src(T341M)(h) (Homo sapiens (Human), UniProt P12931, T341M)
Description: as §1

GRK7(h) = GRK7(h) (Homo sapiens (Human), UniProt Q8WTQ7)
Description: as §1

ARK5(h) = ARK5(h) (Homo sapiens (Human), UniProt O60285)
Description: as §1

Tie2 (h) = Tie2 (h) (Homo sapiens (Human), UniProt Q02763)
Description: as §1

JAK2(h) = JAK2(h) (Homo sapiens (Human), UniProt O60674)
Description: as §1

FAK(h) = FAK(h) (Homo sapiens (Human), UniProt Q05397)
Description: as §1

CDK2/cyclinA(h) = CDK2/cyclinA(h) (Homo sapiens (Human), UniProt P24941)
Description: as §1

MKK3(h), sequence (P46734 whole entry): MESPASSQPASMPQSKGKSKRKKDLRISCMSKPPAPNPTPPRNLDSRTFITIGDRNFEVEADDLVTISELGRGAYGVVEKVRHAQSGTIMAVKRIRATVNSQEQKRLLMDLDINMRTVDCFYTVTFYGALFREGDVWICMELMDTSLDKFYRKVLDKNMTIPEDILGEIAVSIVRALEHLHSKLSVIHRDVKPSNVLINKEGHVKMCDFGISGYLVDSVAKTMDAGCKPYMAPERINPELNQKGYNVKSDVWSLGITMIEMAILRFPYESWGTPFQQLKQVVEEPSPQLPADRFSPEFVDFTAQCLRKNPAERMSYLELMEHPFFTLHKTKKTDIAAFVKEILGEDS
EphA7(h), sequence (Q15375 28-998): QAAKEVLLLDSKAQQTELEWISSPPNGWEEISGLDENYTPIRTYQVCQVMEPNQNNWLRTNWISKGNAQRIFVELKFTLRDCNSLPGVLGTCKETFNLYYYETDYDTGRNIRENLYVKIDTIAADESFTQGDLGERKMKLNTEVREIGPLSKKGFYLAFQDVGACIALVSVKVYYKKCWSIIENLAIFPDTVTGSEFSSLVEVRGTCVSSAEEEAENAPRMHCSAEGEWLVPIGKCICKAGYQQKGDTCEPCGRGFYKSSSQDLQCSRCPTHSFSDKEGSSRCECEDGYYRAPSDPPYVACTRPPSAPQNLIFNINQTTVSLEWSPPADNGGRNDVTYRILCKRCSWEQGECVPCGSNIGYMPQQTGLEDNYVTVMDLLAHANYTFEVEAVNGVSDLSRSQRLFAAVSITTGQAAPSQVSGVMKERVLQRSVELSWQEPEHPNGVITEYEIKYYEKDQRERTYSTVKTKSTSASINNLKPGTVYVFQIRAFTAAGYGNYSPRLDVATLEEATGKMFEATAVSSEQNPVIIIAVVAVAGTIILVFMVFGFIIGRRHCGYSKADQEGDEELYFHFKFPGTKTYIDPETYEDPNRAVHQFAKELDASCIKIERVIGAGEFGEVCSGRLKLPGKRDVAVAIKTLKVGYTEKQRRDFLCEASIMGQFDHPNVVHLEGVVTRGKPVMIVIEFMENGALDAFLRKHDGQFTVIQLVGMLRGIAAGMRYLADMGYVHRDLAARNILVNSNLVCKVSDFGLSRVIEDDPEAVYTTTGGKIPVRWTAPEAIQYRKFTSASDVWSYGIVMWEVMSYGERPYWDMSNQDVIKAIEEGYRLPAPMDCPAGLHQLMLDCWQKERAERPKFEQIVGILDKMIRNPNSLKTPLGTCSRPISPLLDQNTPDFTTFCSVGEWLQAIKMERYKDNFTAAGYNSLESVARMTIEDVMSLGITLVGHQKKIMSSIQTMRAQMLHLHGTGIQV
Axl(h), sequence (P30530 26-894): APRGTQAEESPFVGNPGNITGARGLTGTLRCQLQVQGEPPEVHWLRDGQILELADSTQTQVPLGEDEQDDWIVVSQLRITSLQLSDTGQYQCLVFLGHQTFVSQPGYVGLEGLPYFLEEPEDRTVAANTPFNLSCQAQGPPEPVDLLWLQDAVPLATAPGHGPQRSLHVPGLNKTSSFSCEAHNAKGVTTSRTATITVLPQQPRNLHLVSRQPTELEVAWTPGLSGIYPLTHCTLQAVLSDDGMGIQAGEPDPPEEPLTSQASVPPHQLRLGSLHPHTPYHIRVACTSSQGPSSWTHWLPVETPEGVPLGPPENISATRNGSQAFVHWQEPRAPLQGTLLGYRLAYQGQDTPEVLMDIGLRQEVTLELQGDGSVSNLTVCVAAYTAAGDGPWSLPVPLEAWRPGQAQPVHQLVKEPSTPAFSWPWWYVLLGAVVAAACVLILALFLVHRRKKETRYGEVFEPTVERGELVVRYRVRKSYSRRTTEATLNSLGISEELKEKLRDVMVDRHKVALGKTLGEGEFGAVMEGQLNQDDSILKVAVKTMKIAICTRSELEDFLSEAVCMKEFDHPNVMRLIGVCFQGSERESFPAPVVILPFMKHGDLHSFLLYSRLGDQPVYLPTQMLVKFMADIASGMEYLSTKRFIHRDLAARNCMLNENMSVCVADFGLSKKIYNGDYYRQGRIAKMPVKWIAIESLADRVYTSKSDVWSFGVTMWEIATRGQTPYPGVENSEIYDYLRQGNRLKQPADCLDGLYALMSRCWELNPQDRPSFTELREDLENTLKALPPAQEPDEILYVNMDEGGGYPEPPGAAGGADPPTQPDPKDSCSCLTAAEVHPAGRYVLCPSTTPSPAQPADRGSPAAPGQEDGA
IKKa(h), sequence (O15111 whole entry): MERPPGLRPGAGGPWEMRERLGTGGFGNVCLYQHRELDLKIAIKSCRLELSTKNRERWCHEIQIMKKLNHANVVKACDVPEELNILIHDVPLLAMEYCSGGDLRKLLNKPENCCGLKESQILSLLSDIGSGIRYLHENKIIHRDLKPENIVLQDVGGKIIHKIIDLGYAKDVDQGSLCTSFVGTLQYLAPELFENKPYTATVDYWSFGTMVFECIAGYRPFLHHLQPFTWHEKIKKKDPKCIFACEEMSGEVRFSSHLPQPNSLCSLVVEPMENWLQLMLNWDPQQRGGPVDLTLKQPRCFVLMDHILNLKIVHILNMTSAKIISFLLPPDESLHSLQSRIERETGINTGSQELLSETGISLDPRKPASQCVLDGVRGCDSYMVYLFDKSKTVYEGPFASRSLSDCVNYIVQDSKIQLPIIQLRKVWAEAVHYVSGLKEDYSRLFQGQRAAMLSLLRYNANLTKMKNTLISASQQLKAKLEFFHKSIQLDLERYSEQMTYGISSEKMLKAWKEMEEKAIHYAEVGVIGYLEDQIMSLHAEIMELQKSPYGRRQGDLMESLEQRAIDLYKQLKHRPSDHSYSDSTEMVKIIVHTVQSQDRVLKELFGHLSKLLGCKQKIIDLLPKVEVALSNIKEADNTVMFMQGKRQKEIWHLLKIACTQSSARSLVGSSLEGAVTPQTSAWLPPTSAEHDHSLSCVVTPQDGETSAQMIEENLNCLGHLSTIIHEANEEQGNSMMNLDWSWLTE
PhKγ1(h), sequence (Q16816 whole entry): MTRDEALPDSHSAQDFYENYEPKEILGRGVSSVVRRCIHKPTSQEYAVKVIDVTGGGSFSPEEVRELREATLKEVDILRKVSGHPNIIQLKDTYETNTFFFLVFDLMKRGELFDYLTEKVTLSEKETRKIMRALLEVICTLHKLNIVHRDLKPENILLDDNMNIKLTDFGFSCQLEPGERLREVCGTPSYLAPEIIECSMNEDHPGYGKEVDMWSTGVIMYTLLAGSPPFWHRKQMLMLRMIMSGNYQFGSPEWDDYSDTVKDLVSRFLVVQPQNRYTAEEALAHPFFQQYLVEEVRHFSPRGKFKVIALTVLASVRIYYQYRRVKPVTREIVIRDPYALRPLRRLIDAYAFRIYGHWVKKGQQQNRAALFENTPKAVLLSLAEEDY
Src(T341M)(h), sequence (P12931 whole entry T341M, looked up): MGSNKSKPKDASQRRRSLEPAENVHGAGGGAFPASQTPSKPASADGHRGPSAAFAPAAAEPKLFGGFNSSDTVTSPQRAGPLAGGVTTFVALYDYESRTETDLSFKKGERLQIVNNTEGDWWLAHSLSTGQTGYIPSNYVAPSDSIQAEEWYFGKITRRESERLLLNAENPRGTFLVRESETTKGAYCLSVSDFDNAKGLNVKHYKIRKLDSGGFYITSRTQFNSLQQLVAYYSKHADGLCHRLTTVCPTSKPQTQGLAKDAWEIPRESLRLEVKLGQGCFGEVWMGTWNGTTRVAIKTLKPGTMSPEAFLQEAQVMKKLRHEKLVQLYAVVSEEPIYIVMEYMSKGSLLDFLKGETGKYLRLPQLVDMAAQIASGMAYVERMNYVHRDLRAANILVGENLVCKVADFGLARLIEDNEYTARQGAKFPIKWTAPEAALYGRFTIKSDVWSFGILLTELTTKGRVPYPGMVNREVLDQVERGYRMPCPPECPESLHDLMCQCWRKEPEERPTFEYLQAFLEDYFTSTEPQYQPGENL
EGFR(T790M,L858R)(h), sequence (P00533 25-1210 T790M/L858R): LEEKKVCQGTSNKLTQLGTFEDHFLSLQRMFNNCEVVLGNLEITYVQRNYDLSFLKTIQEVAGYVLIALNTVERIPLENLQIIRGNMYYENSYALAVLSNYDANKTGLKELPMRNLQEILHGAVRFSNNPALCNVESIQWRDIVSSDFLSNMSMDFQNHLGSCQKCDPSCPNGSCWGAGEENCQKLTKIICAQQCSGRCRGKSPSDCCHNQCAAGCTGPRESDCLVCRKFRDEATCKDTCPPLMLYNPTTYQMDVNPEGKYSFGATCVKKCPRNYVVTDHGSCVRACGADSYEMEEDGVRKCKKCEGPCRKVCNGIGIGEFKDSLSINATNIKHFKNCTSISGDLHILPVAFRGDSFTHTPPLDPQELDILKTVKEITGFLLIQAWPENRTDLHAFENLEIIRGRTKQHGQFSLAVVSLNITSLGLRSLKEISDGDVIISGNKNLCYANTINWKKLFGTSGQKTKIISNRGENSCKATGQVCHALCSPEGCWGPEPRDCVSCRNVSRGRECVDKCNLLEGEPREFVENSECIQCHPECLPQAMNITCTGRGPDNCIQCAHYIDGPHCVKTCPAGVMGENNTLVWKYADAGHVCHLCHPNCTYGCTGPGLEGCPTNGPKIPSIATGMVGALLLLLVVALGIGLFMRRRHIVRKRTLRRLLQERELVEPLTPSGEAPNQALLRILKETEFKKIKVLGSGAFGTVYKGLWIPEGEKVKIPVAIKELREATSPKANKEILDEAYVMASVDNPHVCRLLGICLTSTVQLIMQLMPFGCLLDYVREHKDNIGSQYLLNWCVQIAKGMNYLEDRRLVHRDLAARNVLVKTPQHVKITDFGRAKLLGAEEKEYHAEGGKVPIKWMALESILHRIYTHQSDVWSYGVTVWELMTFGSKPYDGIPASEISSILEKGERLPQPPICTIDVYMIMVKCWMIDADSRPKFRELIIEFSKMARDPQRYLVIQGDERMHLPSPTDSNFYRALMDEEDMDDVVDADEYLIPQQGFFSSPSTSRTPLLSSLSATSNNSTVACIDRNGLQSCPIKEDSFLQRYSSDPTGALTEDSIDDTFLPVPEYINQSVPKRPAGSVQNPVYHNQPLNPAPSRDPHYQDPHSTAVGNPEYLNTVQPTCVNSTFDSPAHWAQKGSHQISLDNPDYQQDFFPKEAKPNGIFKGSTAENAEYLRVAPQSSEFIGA

C[C@H](NC(=O)c1c[nH]c2ccc(-c3ccc4nc(NC(=O)C5CC5)sc4c3)cc12)c1cccc(F)c1 [Compound 34, (S)-5-(2-(cyclopropanecarboxamido)benzo[d]thiazol-6-yl)-N-(1-(3-fluorophenyl)ethyl)-1H-indole-3-carboxamide]
Inhibition ratio (AAK1(h)): 24%
Inhibition ratio (GCK(h)): 62%
Inhibition ratio (NEK6(h)): 4%
Inhibition ratio (IKKa(h); IKKa(h)): 5%
Inhibition ratio (EGFR(T790M,L858R)(h); EGFR(T790M,L858R)(h)): 84%
Inhibition ratio (MARK1(h)): 6%
Inhibition ratio (EphA2(h)): 38%
Inhibition ratio (Plk4(h)): 14%
Inhibition ratio (MKK3(h)): 35%
Inhibition ratio (EphA7(h)): 96%
Inhibition ratio (NEK1(h)): 18%
Inhibition ratio (CK1ϵ(h)): 35%
Inhibition ratio (PIP4K2a(h)): 17%
Inhibition ratio (PKBα(h)): 11%
Inhibition ratio (Abl(Y253F)(h)): 95%
Inhibition ratio (TTK(h)): 55%
Inhibition ratio (Axl(h)): 86%
Inhibition ratio (TSSK1(h)): 12%
Inhibition ratio (CHK2(R145W)(h)): 37%
Inhibition ratio (Flt4(h)): 93%
Inhibition ratio (PASK(h)): −25%
Inhibition ratio (PhKγ1(h)): 16%
Inhibition ratio (CDK2/cyclinE(h)): 9%
Inhibition ratio (PKCβII(h)): 7%
Inhibition ratio (PKD2(h)): 46%
Inhibition ratio [1]: 30%
Inhibition ratio (Src(T341M)(h)): 36%
Inhibition ratio (GRK7(h)): 4%
Inhibition ratio (ARK5(h)): 43%
Inhibition ratio (Tie2 (h)): 96%
Inhibition ratio (JAK2(h)): 11%
Inhibition ratio (FAK(h)): 33%
Inhibition ratio (CDK2/cyclinA(h)): 11%

C[C@H](NC(=O)c1cn(C)c2ccc(-c3ccn4nc(NC(=O)C5CC5)nc4c3)cc12)c1cccc(F)c1 [Compound 94, (S)-5-(2-(cyclopropanecarboxamido)-[1,2,4]triazolo[1,5-a]pyridin-7-yl)-N-(1-(3-fluorophenyl)ethyl)-1-methyl-1H-indole-3-carboxamide]
Inhibition ratio/% (AAK1(h)): 2%
Inhibition ratio/% (GCK(h)): −6%
Inhibition ratio/% (NEK6(h)): 23%
Inhibition ratio/% (IKKa(h); IKKα(h)): 29%
Inhibition ratio/% (EGFR(T790M,L858R)(h); EGFR(T790M, L858R)(h)): 52%
Inhibition ratio/% (MARK1(h)): −13%
Inhibition ratio/% (EphA2(h)): 15%
Inhibition ratio/% (Plk4(h)): 15%
Inhibition ratio/% (MKK3(h)): 38%
Inhibition ratio/% (EphA7(h)): 20%
Inhibition ratio/% (NEK1(h)): 50%
Inhibition ratio/% (CK1ϵ(h)): 59%
Inhibition ratio/% (PIP4K2a(h)): 7%
Inhibition ratio/% (PKBα(h)): −11%
Inhibition ratio/% (Abl(Y253F)(h)): 23%
Inhibition ratio/% (TTK(h)): 13%
Inhibition ratio/% (Axl(h)): 31%
Inhibition ratio/% (TSSK1(h)): −8%
Inhibition ratio/% (CHK2(R145W)(h)): 69%
Inhibition ratio/% (Flt4(h)): 34%
Inhibition ratio/% (PASK(h)): 53%
Inhibition ratio/% (PhKγ1(h)): −12%
Inhibition ratio/% (CDK2/cyclinE(h)): 36%
Inhibition ratio/% (PKCβII(h)): 10%
Inhibition ratio/% (PKD2(h)): 9%
Inhibition ratio/% [1]: 10%
Inhibition ratio/% (Src(T341M)(h)): −6%
Inhibition ratio/% (GRK7(h)): −16%
Inhibition ratio/% (ARK5(h)): 8%
Inhibition ratio/% (Tie2 (h)): 30%
Inhibition ratio/% (JAK2(h)): 45%
Inhibition ratio/% (FAK(h)): −3%
Inhibition ratio/% (CDK2/cyclinA(h)): 24%

Reference: US20230365546A1, “5-SUBSTITUTED INDOLE 3-AMIDE DERIVATIVES, PREPARATION METHOD AND USE THEREOF” (ORIGIANT PHARMACEUTICAL CO., LTD, priority 2020, published 2023)
